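Values below derive from 48-hour exposures of cells grown in 96-well plates, with endpoints linearly interpolated between the two concentrations bracketing the appropriate inhibition level. Here, GI50 denotes the concentration required for 50% inhibition of growth.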 Activity calls are given as the source filed them. Rule as the data show it: active = GI50 up to about 1.1 µM and inactive = higher.
Experiments:
Test in all cases: NCI anticancer screen, dose series, 48 h
[1] = system: DMS-273
[2] = system: DMS-114
[3] = system: SNB-78
[4] = system: LXFL 529
[5] = system: HOP-18
[6] = system: M19-MEL
[7] = system: RXF 631
[8] = system: XF498
[9] = system: DLD-1

Measured: GI50

COC(=O)C(=O)C(C(=O)C(=O)Nc1cc(C)ccc1C)c1nc2ccc(C(=O)c3ccccc3)cc2nc1O (stereo not drawn)
inactive: [1] 74.3 µM | [2] 51.4 µM | [3] 58.6 µM | [4] 43.5 µM | [5] 23.8 µM | [6] 88.7 µM | [7] > 100 µM

CC(C)(C)[C@H]1CO[C@]2(c3ccccc3)[C@@H]3C[C@@H]3C(=O)N12
inactive: [1] > 100 µM | [8] > 100 µM | [9] > 100 µM | [2] > 100 µM | [4] > 100 µM | [6] > 100 µM

NC(=S)N/N=C1/C(=O)N(c2ccc(Cl)cc2Cl)C(=O)C(=O)C1c1nc2ccccc2s1 (stereo not drawn)
inactive: [1] > 100 µM | [8] > 100 µM | [2] > 100 µM | [3] > 100 µM | [4] > 100 µM | [5] 98.4 µM | [6] > 100 µM

COc1cc(Cl)cc(N(O)C(C)=O)c1OCc1ccccc1
inactive: [1] 49.9 µM | [8] 36.9 µM | [9] > 100 µM | [2] 25.6 µM | [3] > 100 µM | [4] 75.9 µM | [5] > 100 µM | [6] 70.8 µM

Cc1ccc(NC(=O)C(=O)C2C(=O)NC(=O)NC2=O)c(C)c1
inactive: [1] > 100 µM | [9] > 100 µM | [2] > 100 µM | [3] > 100 µM | [4] > 100 µM | [5] > 100 µM | [6] > 100 µM | [7] > 100 µM

C[N+](C)(C)CC(=O)N/N=C(\C(=O)Nc1ccc(Cl)cc1)C1C(=O)N(c2ccccc2)N=C1N (stereo not drawn)
inactive: [1] > 100 µM | [9] > 100 µM | [2] > 100 µM | [3] > 100 µM | [4] > 100 µM | [6] > 100 µM

Nc1ccc2ncc(NCc3ccc(F)cc3)nc2c1
inactive: [1] > 100 µM | [8] 19.5 µM | [9] > 100 µM | [2] 49 µM | [3] > 100 µM | [4] > 100 µM | [5] > 100 µM | [6] > 100 µM

CN(C)/C=C/C(=CC=[N+](C)C)/C=C/N(C)C.[O-][Cl+3]([O-])([O-])[O-]
inactive: [1] > 100 µM | [8] > 100 µM | [9] > 100 µM | [3] > 100 µM | [4] > 100 µM | [7] > 100 µM

Cc1c(N)c(C#N)c2n(C)c3ncccc3n2c1=O
inactive: [1] > 100 µM | [8] > 100 µM | [9] > 100 µM | [3] > 100 µM | [4] > 100 µM | [5] > 100 µM | [6] > 100 µM

COC(=O)C1=CC2C(=O)OC1CC2C#N (stereo not drawn)
inactive: [1] > 100 µM | [8] > 100 µM | [9] > 100 µM | [2] > 100 µM | [3] > 100 µM | [4] > 100 µM | [5] > 100 µM

CCOC(=O)c1c2ccc(/C=C/C(=O)OC)ccc-2c(C(=O)OCC)c1N
inactive: [1] > 100 µM | [9] > 100 µM | [2] > 100 µM | [4] > 100 µM | [5] > 100 µM | [6] > 100 µM

CN(C)CC1CCC(CN(C)C)C1=NO (stereo not drawn)
inactive: [1] > 100 µM | [9] > 100 µM | [2] > 100 µM | [3] > 100 µM | [4] > 100 µM | [5] > 100 µM | [6] > 100 µM

NC(=S)N/N=C/C(=C/Nc1ccccc1)[N+](=O)[O-]
inactive: [8] > 100 µM | [9] > 100 µM | [2] 15.7 µM | [4] > 100 µM | [6] > 100 µM

CSC(=Nc1nnc(-c2ccc([N+](=O)[O-])cc2)s1)SC
inactive: [1] 41.1 µM | [8] 21.6 µM | [9] 34.7 µM | [2] 25.9 µM | [3] 12.4 µM | [4] 37 µM | [5] 5.64 µM | [6] > 100 µM

O=C(Nc1cc(Cl)cc(Cl)c1)/C(Cc1nc2ccccc2nc1O)=N/NC(=O)c1ccncc1
inactive: [9] > 100 µM | [2] > 100 µM | [3] > 100 µM | [4] > 100 µM | [6] > 100 µM | [7] > 100 µM

O=C(/C=C/c1ccc(Cl)cc1)c1ccc(Cl)c(Cl)c1
inactive: [1] 40.9 µM | [9] 15 µM | [2] 23.6 µM | [3] > 10 µM | [4] 18.9 µM | [6] 27.8 µM

c1cncc(C2c3[nH]c4ccccc4c3CCN2CCCN2CCCCC2)c1 (stereo not drawn)
inactive: [1] > 100 µM | [8] 57.4 µM | [9] > 100 µM | [2] > 100 µM | [3] > 100 µM | [4] 68.7 µM | [6] > 100 µM

CCCCCCCC(=O)OCC1OC(n2cc(F)c(=O)[nH]c2=O)C(NC(=O)OCc2ccccc2)C(O)C1O (stereo not drawn)
inactive: [1] 40 µM | [2] 41.6 µM | [3] > 100 µM | [4] 31.3 µM | [6] 56.8 µM

O=C1c2ccccc2C(=O)c2[nH]c(Cc3ccc(F)cc3)nc21
inactive: [1] 18.1 µM | [8] 17.2 µM | [9] 4.01 µM | [2] > 10 µM | [4] 26.4 µM | [6] 16.9 µM | [7] 15.9 µM

COC1(C)Cc2c(c(C)c(O)c3c2C(=O)C=C(Cl)C3=O)O1 (stereo not drawn)
inactive: [1] > 64.6 µM | [8] 23.6 µM | [9] 15.7 µM | [2] 28 µM | [4] 15.1 µM | [6] 16.4 µM
